# Measurements reported in patent US6391305B1, “Conjugates useful in the treatment of prostate cancer” (priority 1999, dated 2002).
# Like-named read-outs stand apart in the source and are kept apart here. Non-standard residues stand in square brackets, D forms with d. Residues, ends and D or L forms follow the SMILES beside them. *: point of attachment. Doxorubicin(3'-N) = COc1cccc2c1C(=O)c1c(O)c3c(c(O)c1C2=O)C[C@@](O)(C(=O)CO)C[C@@H]3O[C@H]1C[C@H](N*)[C@H](O)[C@H](C)O1; Dox = doxorubicin, linked through its 3'-amine to the C-terminal carbonyl; Decanoyl(3,6,9-trioxa) = COCCOCCOCC(=O)*; Glyceroyl(2S) = O=C([C@@H](O)CO)*; Glyceroyl(2R) = O=C([C@H](O)CO)*; hArg = N=C(N)NCCCC[C@H](N)C(=O)O; Chg = N[C@H](C(=O)O)C1CCCCC1
# Experiments:
# DuPRO cells = experiment: In vitro cytotoxicity, Alamar Blue assay, DuPRO; format: cell-based; details: value in parentheses beside the LNCaP value, read-out: DuPRO cell kill EC 50
# Method: (§1) The cytotoxicities of the cleaveable oligopeptide-doxorubicin conjugates, prepared as described in Examples 3-6, against a line of cells which is known to be killed by unmodified doxorubicin was assessed with an Alamar Blue assay. Specifically, cell cultures of LNCap prostate tumor cells or DuPRO cells in 96 well plates was diluted with medium containing various concentrations of a given conjugate (final plate well volume of 200 μl ). The cells were incubated for 3 days at 37° C., 20 μl of Alamar Blue is added to the assay well. The cells were further incubated and the assay plates were read on a EL-310 ELISA reader at the dual wavelengths of 570 and 600 nm at 4 and 7 hours after addition of Alamar Blue. Relative percentage viability at the various concentration of conjugate tested was then calculated versus control (no conjugate) cultures. If no salt is indicated, the free conjugate was tested.
# [1] = tested on: LNCap prostate tumor cells; experiment: In vitro cytotoxicity, Alamar Blue assay, LNCaP; format: cell-based; details: 72 HRS, read-out: LNCaP Cell Kill in 72 HRS, {48 HRS} EC 50
# Method: as §1
# [2] = biological target: T1, enzymatically active free PSA (Homo sapiens, UniProt P07288); experiment: Recognition (cleavage) of oligopeptide-doxorubicin conjugates by free PSA, HPLC; format: biochemical; details: DOX conjugate; for Time to 50% Substrate Cleavage by York PSA: PSA digestion buffer pH7.4, 140 mM NaCl, molar ratio to PSA 100 to 1
# T1 construct: required for 50% cleavage of the noted oligopeptides with enzymatically active free PSA
# Method: If no salt is indicated for the conjugate, the free conjugate was tested.
# [3] = Solubility remarks (INSOLUBLE, PS, PP) printed beside the assay results of Tables 2-4; format: physicochemical; details: DOX conjugate in cytotoxicity test
# [4] = listed as PEG(2)-ShRYQ-SL-DOX(3′)
# T1 sequence (P07288 25-261): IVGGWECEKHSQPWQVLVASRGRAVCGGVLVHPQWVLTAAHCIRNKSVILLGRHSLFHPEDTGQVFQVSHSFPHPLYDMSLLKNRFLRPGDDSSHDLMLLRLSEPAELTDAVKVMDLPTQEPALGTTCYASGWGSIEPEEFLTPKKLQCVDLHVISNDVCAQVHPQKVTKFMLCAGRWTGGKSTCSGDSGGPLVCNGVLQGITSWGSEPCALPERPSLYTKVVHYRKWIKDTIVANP
Compound,EC50 (DuPRO cells) [µM],EC50 [1] [µM],Time to 50% Substrate Cleavage by York PSA [2] [min],Solubility remark in Table 4 [3],Substrate cleavage by York PSA at 4 HOUR ([2]; 4 hours) [%],EC50 (DuPRO cells; [4]) [µM],"EC50 [1, 4] [µM]"
"COc1cccc2c1C(=O)c1c(O)c3c(c(O)c1C2=O)C[C@@](O)(C(=O)CO)C[C@@H]3O[C@H]1C[C@H](NC(=O)[C@@H](CC(C)C)NC(=O)[C@H](CO)NC(=O)[C@H](CCC(N)=O)NC(=O)[C@@H](NC(=O)[C@H](CO)NC(=O)[C@H](CO)NC(=O)[C@H](CO)NC(=O)[C@@H](O)CO)C2CCCCC2)[C@H](O)[C@H](C)O1 [(l)(2,3-dihydroxypropionyl)SerSerSerChgGln-Ser(dLeu)-DOX (3′)] ({Glyceroyl(2S)}-SSS[Chg]QS[dL]-{Doxorubicin(3'-N)})",> 100,91,180,,,,
"COc1cccc2c1C(=O)c1c(O)c3c(c(O)c1C2=O)C[C@@](O)(C(=O)CO)C[C@@H]3O[C@H]1C[C@H](NC(=O)[C@H](CC(C)C)NC(=O)[C@H](CO)NC(=O)[C@H](CCC(N)=O)NC(=O)[C@@H](NC(=O)[C@H](CO)NC(=O)[C@H](CO)NC(=O)[C@H](CCCCNC(=N)N)NC(=O)[C@@H](O)CO)C2CCCCC2)[C@H](O)[C@H](C)O1 [(l)(2,3-dihydroxypropionyl)hArgSerSerChgGlnSerLeu-DOX (3′)] ({Glyceroyl(2S)}-[hArg]SS[Chg]QSL-{Doxorubicin(3'-N)})",> 100,7.5,12,,,,
"COc1cccc2c1C(=O)c1c(O)c3c(c(O)c1C2=O)C[C@@](O)(C(=O)CO)C[C@@H]3O[C@H]1C[C@H](NC(=O)[C@H](CC(C)C)NC(=O)[C@H](CO)NC(=O)[C@H](CCC(N)=O)NC(=O)[C@@H](NC(=O)[C@H](CO)NC(=O)[C@H](CO)NC(=O)[C@H](CO)NC(=O)[C@H](O)CO)C2CCCCC2)[C@H](O)[C@H](C)O1 [N-2(R)-2,3-dihydroxypropionyl-Ser-Ser-Ser-Chg-Gln-Ser-Leu-Dox] ({Glyceroyl(2R)}-SSS[Chg]QSL-{Doxorubicin(3'-N)})",> 100,5.8,55,,,,
"COc1cccc2c1C(=O)c1c(O)c3c(c(O)c1C2=O)C[C@@](O)(C(=O)CO)C[C@@H]3O[C@H]1C[C@H](NC(=O)[C@H](CC(C)C)NC(=O)[C@H](CO)NC(=O)[C@H](CCC(N)=O)NC(=O)[C@@H](NC(=O)[C@H](CO)NC(=O)[C@H](CO)NC(=O)[C@H](CO)NC(=O)[C@@H](O)CO)C2CCCCC2)[C@H](O)[C@H](C)O1 [N-2(S)-2,3-dihydroxypropionyl-Ser-Ser-Ser-Chg-Gln-Ser-Leu-Dox] ({Glyceroyl(2S)}-SSS[Chg]QSL-{Doxorubicin(3'-N)})",> 100,5.5,25,,,,
"COCCOCCOCC(=O)N[C@@H](CCCCNC(=N)N)C(=O)N[C@H](C(=O)N[C@@H](CCC(N)=O)C(=O)N[C@@H](CO)C(=O)N[C@@H](CC(C)C)C(=O)N[C@H]1C[C@H](O[C@H]2C[C@](O)(C(=O)CO)Cc3c(O)c4c(c(O)c32)C(=O)c2c(OC)cccc2C4=O)O[C@@H](C)[C@H]1O)C1CCCCC1 [PEG(2)-HomoRChgQ-SL-DOX (3′), PEG(2)-hArgChgGln-SerLeu-DOX (3′)] ({Decanoyl(3,6,9-trioxa)}-[hArg][Chg]QSL-{Doxorubicin(3'-N)})",,,,INSOLUBLE,12,,
"COCCOCCOCC(=O)N[C@@H](CCCCNC(=N)N)C(=O)N[C@@H](CO)C(=O)N[C@@H](CO)C(=O)N[C@H](C(=O)N[C@@H](CCC(N)=O)C(=O)N[C@@H](CO)C(=O)N[C@@H](CC(C)C)C(=O)N[C@H]1C[C@H](O[C@H]2C[C@](O)(C(=O)CO)Cc3c(O)c4c(c(O)c32)C(=O)c2c(OC)cccc2C4=O)O[C@@H](C)[C@H]1O)C1CCCCC1 [PEG(2)-HomoRSSChgQ-SL-DOX (3′), PEG(2)-hArgSerSerChgGln-SerLeu-DOX (3′)] ({Decanoyl(3,6,9-trioxa)}-[hArg]SS[Chg]QSL-{Doxorubicin(3'-N)})",> 100,5.7,11,,,,
"COCCOCCOCC(=O)N[C@@H](CO)C(=O)N[C@@H](CCCCNC(=N)N)C(=O)N[C@H](C(=O)N[C@@H](CCC(N)=O)C(=O)N[C@@H](CO)C(=O)N[C@@H](CC(C)C)C(=O)N[C@H]1C[C@H](O[C@H]2C[C@](O)(C(=O)CO)Cc3c(O)c4c(c(O)c32)C(=O)c2c(OC)cccc2C4=O)O[C@@H](C)[C@H]1O)C1CCCCC1 [PEG(2)-SHomoRChgQ-SL-DOX (3′), PEG(2)-SerhArgChgGln-SerLeu-DOX (3′)] ({Decanoyl(3,6,9-trioxa)}-S[hArg][Chg]QSL-{Doxorubicin(3'-N)})",> 100,8.1,25,,,,
"COCCOCCOCC(=O)N[C@@H](CO)C(=O)N[C@@H](CCCCNC(=N)N)C(=O)N[C@@H](Cc1ccc(O)cc1)C(=O)N[C@@H](CCC(N)=O)C(=O)N[C@@H](CO)C(=O)N[C@@H](CC(C)C)C(=O)N[C@H]1C[C@H](O[C@H]2C[C@](O)(C(=O)CO)Cc3c(O)c4c(c(O)c32)C(=O)c2c(OC)cccc2C4=O)O[C@@H](C)[C@H]1O [PEG(2)-SHomoRYQ-SL-DOX(3′), PEG(2)-SerhArgTyrGln-SerLeu-DOX(3′)] ({Decanoyl(3,6,9-trioxa)}-S[hArg]YQSL-{Doxorubicin(3'-N)})",,,35,,,> 100,4.5
"COCCOCCOCC(=O)N[C@@H](CO)C(=O)N[C@@H](CO)C(=O)N[C@H](C(=O)N[C@@H](CCC(N)=O)C(=O)N[C@@H](CO)C(=O)N[C@@H](CC(C)C)C(=O)N[C@H]1C[C@H](O[C@H]2C[C@](O)(C(=O)CO)Cc3c(O)c4c(c(O)c32)C(=O)c2c(OC)cccc2C4=O)O[C@@H](C)[C@H]1O)C1CCCCC1 [PEG(2)SSChgQ-SL-DOX (3′), PEG(2)SerSerChgGln-SerLeu-DOX (3′)] ({Decanoyl(3,6,9-trioxa)}-SS[Chg]QSL-{Doxorubicin(3'-N)})",> 100,8.8,90,,,,
"N-[2-{2-(2-methoxyethoxy)ethoxy}acetyl]-Ser-Ser-Ser-Chg-Gln-Ser-Leu-Dox ({Decanoyl(3,6,9-trioxa)}-SSS[Chg]QSL-Dox) [PEG(2)-SSSChgQ-SL-DOX (3′)]",> 100,10,60,,,,
